# Results taken from patent US20030139331A1, “Treatment of cancer by reduction of intracellular energy and pyrimidines” (priority 2000, published 2003).
# “Also recorded” adds a separate entry of the source.
# How the values were obtained:
# [1] = test system: murine breast cancers, colon tumors and leukemia, and human breast cancer xenografts; test: MAP plus anticancer agents in advanced tumor-bearing mice with a variety of tumor types; assay type: in vivo; settings: MAP co-administered with the named anticancer agent
# Method: Summary of Preclinical Therapeutic Results with MAP+Cancer Chemotherapy—MAP+each of nine mechanistically-different apoptosis-inducing anticancer agents was administered to advanced tumor-bearing mice with a variety of tumor types (murine breast cancers, colon tumors and leukemia, and human breast cancer xenografts).
# [2] = test system: MDA-MB 468 human breast cancer xenografts; test: Taxotere with MAP or MAPAL in MDA-MB-468 human breast cancer xenografts; assay type: in vivo; settings: for PR (partial tumor regression): CR included in PR rate; for (CR) complete tumor regression: included in PR rate; for % Partial Regressions: tumors averaged 100 mg at initiation, label subscript = mg/kg
# Text: Table 2 presents results one month after completing a q 2 week×3 schedule with Taxotere (TXT40 or TXT20; subscript=mg/kg), initiated in mice (10/grp) with subcutaneous advanced (100+mg) MDA-MB 468 breast cancer xenografts, are as follows: […]
# [3] = test system: MDA-MB 468 human breast cancer xenografts; test: as above; assay type: in vivo; settings: pyruvate for 1 day on the 5th day after each ATP-depleting treatment
# in vivo = settings: CD8F1, mouse, in vivo
# Text: (§1) Table 1 evaluates Saline-treated controls (Group 1), 6-AN (Group 2) and DDP (Group 3) as single agents, and in combination (Group 4), against 1st generation subcutaneous solid tumor transplants of advanced CD8F, spontaneous breast tumors. In the same experiment (i.e., same tumor transplants), is a group adding 6-AN to PALA and MMPR (MAP, Group 5), as well as a group with MAP administered prior to DDP (Group 6).
# (§2) Each experiment is from a different brei (i.e., each from a different group of 3-4 spontaneous tumors) and, therefore, each transplant group contained a different number of chemotherapeutically sensitive and/or resistant tumor cells.
# [4] = test system: first passage CD8F1 advanced spontaneous breast tumors; test: in vivo; settings: for effect on tumor growth / anticancer activity (in words): advanced CD8F1 breast tumors in mice; for Regressions/Survivors: partial tumor regressions
# Text: as §1, §2
# mouse lymphoma cells = settings: in vitro; cited from earlier work
# [5] = test system: 1st passage tumor transplants of CD8F1 spontaneous breast tumors; test: Effect of MMPR + 6-AN + PALA on tumor ATP pools in CD8F1 mice; assay type: in vivo; design: tumor ATP levels 48 hours after treatment, % of normal (saline-treated control tumors) / 6 HR % Saline Control / 24 HR % Saline Control / 48 HR % Saline Control / 72HR % Saline Control / 6 HW % Saline Control: concentration or dose not given beside the values; settings: for tumor ATP level, % of normal: murine breast tumors in vivo, time not stated in the sentence
# tumor ATP levels = settings: cited from earlier work
# [6] = test system: patients with disseminated cancer; settings: cited from earlier work
# [7] = test system: spontaneous, autochthonous CD8F1 breast tumors; test: Therapy of mice bearing spontaneous, autochthonous CD8F1 breast tumors; assay type: in vivo
# Text: Anticancer Effect of MAP Alone in Spontaneous Murine Breast Tumors (Ref. 39)—Table 3 records that MAP produced a partial tumor regression rate of 38% in mice bearing large spontaneous, autochthonous breast tumors. There were 24 partial tumor regressions in 64 surviving mice with acceptable toxicity (4% mortality, 3 deaths in 67 treated mice). Spontaneous regression of these spontaneous breast cancers has never been observed.
# [8] = 69 days after initiating therapy, listed as TXT20
# [9] = 69 days after initiating therapy, listed as Taxotere40
# [10] = Exp.3069F, tumors averaged 80 mg at start, three i.p. courses at 10-11 day intervals, after third course
smiles,measurement,setting,value
"CC(=O)O[C@@]12CO[C@@H]1C[C@H](O)[C@@]1(C)C(=O)[C@H](O)C3=C(C)[C@@H](OC(=O)[C@H](O)[C@@H](NC(=O)OC(C)(C)C)c4ccccc4)C[C@@](O)([C@@H](OC(=O)c4ccccc4)[C@H]21)C3(C)C [Taxotere, taxotere]",enhancement of anticancer agent activity by co-administered MAP (in words),[1],significantly enhance response rates
same,PR (partial tumor regression),[2]; [8],0%
same,PR (partial tumor regression),[2]; [9],60%
same,Mortality,"[2]; 69 days after initiating therapy, every 2 weeks x 3, 10-11 mice per group",0%
same,(CR) complete tumor regression,[2]; [8],(0%)
same,(CR) complete tumor regression,[2]; [9],(10%)
same,NR (no tumor regression),[2]; [8],100%
same,NR (no tumor regression),[2]; [9],40%
same,tumor regressions with the single agent,[2]; MDA-MB-468 tumor model described as very sensitive,90-100%
same,"tumor regrowth beginning, days after the third and last injection","[2]; full (MTD) dose Taxotere, Group 1",41 days
same,% Tumors Progressing,"[2]; treatment q 2 weeks x 3, progressing tumors larger than P.R. tumors and growing",0%
same,% Partial Regressions,[2]; treatment q 2 weeks x 3,100%
same,% Partial Regressions,"[2]; treatment q 2 weeks x 3, listed as Taxotere40",100%
"CC(=O)C(=O)O [Pyruvate, pyruvate]",effect of pyruvate administration on treatment-induced weight loss / mortality,[3],diminishes the degree of weight loss
same,effect of pyruvate administration on treatment-induced weight loss / mortality,[3]; listed as pyruvate,"Unacceptable mortality (e.g., 30%) is prevented"
"CC(=O)O[C@H]1C(=O)[C@@]2(C)[C@H]([C@H](OC(=O)c3ccccc3)[C@]3(O)C[C@H](OC(=O)[C@H](O)[C@@H](NC(=O)c4ccccc4)c4ccccc4)C(C)=C1C3(C)C)[C@]1(OC(C)=O)CO[C@@H]1C[C@@H]2O [Taxol, paclitaxel]",enhancement of anticancer agent activity by co-administered MAP (in words),[1],significantly enhance response rates
same,MTD,in vivo,80 mg/kg
same,PR/survivors (%),"[4]; Table 5, MAP ± taxol",no tumor regressions
same,effect on tumor growth / anticancer activity (in words),[4],statistically significant inhibition of tumor growth
N[C@@H](CN(O)N=O)C(=O)O [L-alanosine],"cell growth, % of control",mouse lymphoma cells,59%
same,"intracellular tumor cell ATP pool, % of normal (control)",mouse lymphoma cells,63%
CO[C@@]12[C@H](COC(N)=O)C3=C(C(=O)C(C)=C(N)C3=O)N1C[C@@H]1N[C@@H]12 [mitomycin C],enhancement of anticancer agent activity by co-administered MAP (in words),[1],significantly enhance response rates
"N.N.[Cl][Pt][Cl] [DDP, cisplatin]",enhancement of anticancer agent activity by co-administered MAP (in words),[1],significantly enhance response rates
same,% Weight Change,"[4]; Exp.3069F, after third course",−18%
same,Dead/Total,"[4]; Exp.3069F, after third course",1/10
same,Regressions/Survivors,"[4]; Exp.3069F, after third course",0/9
same,Av. Tumor W't,[4]; [10],850 mg
same,effect on tumor growth / anticancer activity (in words),[4],limited to inhibition of tumor growth
same,effect on tumor growth / anticancer activity (in words),[4]; listed as cisplatin,significantly inhibited tumor growth
same,Regressions/Survivors (%),"[4]; pooled five experiments, MAP ± DDP, one week after third course","produced no partial (i.e., greater than 50% shrinkage of tumors), or complete response"
same,MTD (maximum tolerated dose) of the agent alone,"[4]; single agent, 10-11 day schedule, tumor-bearing CD8F1 mice",7 mg/kg
"N[C@@H](Cc1ccc(N(CCCl)CCCl)cc1)C(=O)O [PAM, phenylalanine mustard]",enhancement of anticancer agent activity by co-administered MAP (in words),[1],significantly enhance response rates
same,Partial Regressions (%),"[4]; Table 6, MAP ± PAM",did not produce tumor regressions
O=P1(N(CCCl)CCCl)NCCCO1 (stereo not drawn) [cyclophosphamide],enhancement of anticancer agent activity by co-administered MAP (in words),[1],significantly enhance response rates
"O=C(O)C[C@H](NC(=O)CP(=O)(O)O)C(=O)O [PALA, N-(phosphonacetyl)-L-aspartic acid]",effect on tumor growth / anticancer activity (in words),[4],not antitumor active; also recorded: does not have anticancer activity
same,effect on tumor ATP levels (in words),[5]; low dose PALA,had no effect on ATP levels; also recorded: does not effect ATP depletion; also recorded: devoid of an ATP depleting effect; also recorded: does not affect ATP depletion; also recorded: neither reduces tumor ATP levels nor inhibits tumor growth
COc1cccc2c1C(=O)c1c(O)c3c(c(O)c1C2=O)C[C@@](O)(C(=O)CO)C[C@@H]3O[C@H]1C[C@H](N)[C@H](O)[C@H](C)O1 [doxorubicin],enhancement of anticancer agent activity by co-administered MAP (in words),[1],significantly enhance response rates
COc1cc([C@@H]2c3cc4c(cc3[C@@H](O[C@@H]3O[C@@H]5CO[C@@H](C)O[C@H]5[C@H](O)[C@H]3O)[C@H]3COC(=O)[C@H]23)OCO4)cc(OC)c1O [etoposide],enhancement of anticancer agent activity by co-administered MAP (in words),[1],significantly enhance response rates
"NC(=O)c1ccc(N)nc1 [6-AN, 6-aminonicotinamide]",toxicity of in vivo schedules,"tumor ATP levels; 6-AN 10 mg/kg q 3 hours x 3 on days 1,3,5 or continuous infusion",too toxic
same,"tumor ATP levels, % of normal","tumor ATP levels; single dose of 6-AN alone at 10 mg/kg, different tumor model",75-80%
same,% Weight Change,"[4]; Exp.3069F, after third course",+6%
same,Dead/Total,"[4]; Exp.3069F, after third course",3/10
same,Regressions/Survivors,"[4]; Exp.3069F, after third course",0/7
same,Av. Tumor W't (mg),[4]; [10],"1,765 mg"
same,effect on tumor growth / anticancer activity (in words),[4],tumor growth was inhibited
same,partial tumor regression (P.R.) rate,"[4]; three pooled published experiments, MMPR, 6-AN, PALA alone and combined, P.R. = 50% or more tumor shrinkage, three courses, 1-week interval",no partial regressions
same,"tumor ATP levels 48 hours after treatment, % of normal (saline-treated control tumors)",[5]; 48 hours after administration,69%
same,"tumor ATP level, % of normal",[5],75%
same,"tumor ATP level, % of normal",[5]; listed as 6-Aminonicotinamide,69%
same,6 HW % Saline Control,"[5]; seventh series copy of Table 1, 6 hr",77%
same,24 HR % Saline Control,"[5]; seventh series copy of Table 1, 24 hr",75%
same,48 HR % Saline Control,"[5]; seventh series copy of Table 1, 48 hr",69%
same,72HR % Saline Control,"[5]; seventh series copy of Table 1, 72 hr",169%
same,6 HR % Saline Control,"[5]; tumor ATP 6 hr after i.p. injection, % of saline control",77%
same,24 HR % Saline Control,"[5]; tumor ATP 24 hr after i.p. injection, % of saline control",75%
same,48 HR % Saline Control,"[5]; tumor ATP 48 hr after i.p. injection, % of saline control",69%
same,72HR % Saline Control,"[5]; tumor ATP 72 hr after i.p. injection, % of saline control",169%
same,dose of 6-AN determined to be safe in early clinical trials,[6]; for up to 28 consecutive days of treatment,0.2 mg/kg/day
same,clinical forms of 6-AN toxicity,"[6]; three Phase I trials, daily administration","at low dose a mixed B complex vitamin deficiency, and at high dose CNS toxicity; also recorded: a low dose mixed B complex vitamin deficiency, and a high dose-dependent CNS toxicity"
"O=c1[nH]cc(F)c(=O)[nH]1 [FUra, 5-fluorouracil]",enhancement of anticancer agent activity by co-administered MAP (in words),[1],significantly enhance response rates
same,MTD,in vivo,100 mg/kg
same,"regressions of spontaneous autochthonous breast tumors, FUra alone at 75 mg/kg",[7]; 75 mg/kg,less than 5%
same,"PR rate, FUra alone at its MTD of 100 mg/kg",[7]; 100 mg/kg,≤ 20%
